Measured values reported in US9395368B2, “Methods, agents and peptides for inducing an immune response to matrix metalloproteinase-2 expressing tumors” (New York University, priority 2010, dated 2016).

What follows are sequences tested on MMP-2-specific CD4+ T cell clones (assay: Epitope specificity of MMP-2-specific CD4+ T cell clones with individual peptides (ELISA)). Details: individual peptides 2 μM; TNFα, IL-4 and IFNγ production.
Type: cell-based, human
Method: (A) MMP-2-specific CD4^+ T cell clones were generated and characterized as described in Experimental Procedures. Clone HD9828/52 is shown as a representative example. Epitope specificities were assessed after overnight stimulation with individual peptides (2 μM). IFNγ, TNFα and IL-4 release was measured by ELISA. (B) All MMP-2-specific CD4^+ T cell clones were characterized by staining for CD4, CD8 and TCR Vβ chain expression. Clone HD9828/52 is shown as a representative example. (C) To establish HLA class-II isotype restriction, CD4^+ T cell clones were stimulated by corresponding peptides in the absence or presence of blocking mAb (10 μg/mL) for HLA-DP, HLA-DQ or HLA-DR and IFNγ release was measured by ELISA. (D) Purified CD4^+/CD25^− cells were stimulated for 12 days by autologous DCs incubated with MMP-2 protein (10 μM) and subsequently washed. MMP-2-specific CD4^+ T cells were detected by intracellular staining of IFNγ, TNFα and IL-4 after 6 hours of stimulation with MMP-2 peptide pool (2 μM). Numbers in the upper right quadrants are the percentages of each population.
All 19 MMP-2-specific CD4^+ T cell clones were characterized for epitope specificity by testing clone responses to every peptide separately. TCR Vβ expression was assessed by surface staining HLA class-II isotype restriction was determined by using blocking mAb to HLA-DP, -DQ and -DR. Results listed for the T cell clone HD9828/MC1/52 are shown in FIG. 1 and FIG. 11, and are highlighted in bold italics.
T Cell culture, stimulation and priming. Peripheral blood mononuclear cells (PBMCs) were purified from healthy donor-(HD) or cord blood donor-(CB) derived buffy coats (New York Blood Center) by Ficoll-Paque Plus (GE Healthcare) centrifugation. CD4^+/CD25^− cells were enriched (>90%) by magnetic cell sorting (Miltenyi Biotec) and primed/stimulated for 12-15 days either with irradiated (35Gy) autologous CD4^− cells or with autologous mature DCs in IMDM (GIBCO) supplemented with 1 mM HEPES (Life Technologies), 2 mM L-glutamine (Sigma), […] (Sigma) and 5% heat inactivated pooled human serum (PHS; Valley Biomedical) in the presence of rhIL-2 (10 UI/mL) and IL7 (5 ng/mL) (R&D Systems). Antigen presenting cells (CD4^− cells or DCs) were loaded either with peptides (2 μM) or with the MMP-2 protein (10 μg/mL) for 2 and 5 h, respectively. DCs were matured using the TLR3 agonist poly(I:C) at 5 μg/mL/10^6 DCs (Amersham). To generate T cell clones, we originally relied on our published methodology (Godefroy et al., 2006; Godefroy et al., 2007; the entire contents of each of which is incorporated herein by reference), involving enrichment of IFNγ-secreting cells upon short-term culture and peptide stimulation to generate MMP-2 responsive clones. Briefly, CD4^+ T cells were stimulated by CD4^− cells irradiated and pulsed with peptides for 12 days in the presence of rhIL-2 and rhIL-7. CD4^+ T cells were then restimulated with peptides for 3 hours before capturing IFNγ-secreting specific cells using a bispecific antibody coating T cells and capturing produced IFNγ. Positive cells were purified magnetically before being cloned. Although MMP-2-specific cells could be isolated, it was realized that IFNγ secretion was marginal compared to their secretion of IL-4 and TNFα. IFNγ-secreting cells in response to MMP-2 peptide pool were enriched by cytokine-guided magnetic cell sorting (Miltenyi Biotec) as described above and cloned the following day by limiting dilution in the presence of irradiated allogeneic PBMCs, 1 μg/mL phytohemagglutinin-L (Sigma) and 150 UI/mL rhIL-2. Tumor infiltrating lymphocytes (TILs) were provided by Pr. F. Jotereau and B. Dréno. They were obtained from tumor-invaded lymph nodes of melanoma patients (stage Mb) and expanded ex vivo. These patients received autologous TILs and IL-2 infusions in a clinical trial (Labarriere et al., 2002). […]
“VDLQGGGHSYFFKGAYYLKL (listed as Homo sapiens) [P621-640]” was tested, and the “recognition by CD4+ T cell clones” value was “recognized”. “TGPLRALCLLGCLLSHAAAA (listed as Homo sapiens) [P11-30]” was tested, and the “recognition by CD4+ T cell clones” value was “recognized”. In the case of “GYPKPLTSLGLPPDVQRVDA (listed as Homo sapiens) [P551-570]”, the “recognition by CD4+ T cell clones” value is reported as “recognized”. For “VAPKTDKELAVQYLNTFYGC (listed as Homo sapiens) [P41-60]”, the “recognition by CD4+ T cell clones” value was “recognized”. In the case of “RIHDGEADIMINFGRWEHGD (listed as Homo sapiens) [P161-180]”, the “recognition by CD4+ T cell clones” value is reported as “recognized”. For “ESCTSAGRSDGKMWCATTAN (listed as Homo sapiens) [P361-380]”, the “recognition by CD4+ T cell clones” value was “recognized”. For “AFNWSKNKKTYIFAGDKFWR (listed as Homo sapiens) [P571-590]”, the “recognition by CD4+ T cell clones” value was “recognized”. With “MEALMARGALTGPLRALCLL (listed as Homo sapiens) [P1-20]” the “recognition by CD4+ T cell clones” value was “recognized”. For “GFPKLIADAWNAIPDNLDAV (listed as Homo sapiens) [P601-620]”, the “recognition by CD4+ T cell clones” value was “recognized”. With “FFKGAYYLKLENQSLKSVKF (listed as Homo sapiens) [P631-650]” the “recognition by CD4+ T cell clones” value was “recognized”. In the case of “GCLLSHAAAAPSPIIKFPGD (listed as Homo sapiens) [P21-40]”, the “recognition by CD4+ T cell clones” value is reported as “recognized”.
